Reference: publication PMC2900413 (Biochemical pharmacology, 2010)
“Also recorded” adds a separate entry of the source.

How the values were obtained:
[1] = target: A2AAR; conditions: read-out: Ki, radioligand binding; reported values; ref [1], [27], [28], [29]; cited from earlier work
[2] = target: A2AAR (Homo sapiens, UniProt P29274); assay: Cyclic AMP accumulation assay, CHO cells expressing the A2AAR; conditions: CGS21680-induced cyclic AMP accumulation in CHO cells expressing the A2AAR
[3] = target: T1, A2B AR (Homo sapiens, UniProt P29275); assay: Cyclic AMP accumulation assay, CHO cells expressing the A2B AR; type: cell-based; conditions: at 10 μM
T1 sequence (P29275 1-332): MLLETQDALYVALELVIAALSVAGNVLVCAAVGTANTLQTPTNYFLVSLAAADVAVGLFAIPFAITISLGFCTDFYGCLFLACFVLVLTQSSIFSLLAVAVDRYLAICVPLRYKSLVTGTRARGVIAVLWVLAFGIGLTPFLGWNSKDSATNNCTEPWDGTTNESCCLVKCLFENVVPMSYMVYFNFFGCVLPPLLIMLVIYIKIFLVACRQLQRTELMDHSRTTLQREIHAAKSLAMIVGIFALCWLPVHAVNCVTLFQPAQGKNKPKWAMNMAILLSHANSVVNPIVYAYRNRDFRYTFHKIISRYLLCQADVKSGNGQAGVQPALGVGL

[4] = target: T2, A3 AR (Homo sapiens, UniProt P0DMS8); assay: Radioligand membrane binding assay at the A3 AR with [125I]AB-MECA
T2 sequence (P0DMS8 1-318): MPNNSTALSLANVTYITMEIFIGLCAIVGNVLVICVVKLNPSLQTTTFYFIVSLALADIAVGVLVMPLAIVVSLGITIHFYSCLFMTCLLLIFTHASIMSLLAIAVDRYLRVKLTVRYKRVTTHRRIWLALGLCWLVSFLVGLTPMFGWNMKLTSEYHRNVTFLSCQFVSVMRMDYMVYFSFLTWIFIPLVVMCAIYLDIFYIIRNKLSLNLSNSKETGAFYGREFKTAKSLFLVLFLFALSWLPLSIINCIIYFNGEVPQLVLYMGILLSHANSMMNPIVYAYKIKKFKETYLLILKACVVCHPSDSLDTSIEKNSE

[5] = target: T3, A1 AR (Homo sapiens, UniProt P30542); assay: Radioligand membrane binding assay at the A1 AR with [3H]R-PIA
T3 sequence (P30542 1-326): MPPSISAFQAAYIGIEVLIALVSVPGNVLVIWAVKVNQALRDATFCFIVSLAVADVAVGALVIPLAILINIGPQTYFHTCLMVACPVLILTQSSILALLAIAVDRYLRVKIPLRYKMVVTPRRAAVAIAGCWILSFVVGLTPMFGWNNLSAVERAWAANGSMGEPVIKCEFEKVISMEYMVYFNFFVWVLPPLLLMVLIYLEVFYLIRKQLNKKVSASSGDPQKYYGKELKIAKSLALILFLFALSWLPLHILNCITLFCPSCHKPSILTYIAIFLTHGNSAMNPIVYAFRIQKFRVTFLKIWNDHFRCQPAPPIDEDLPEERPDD

Sequence of A2AAR (Homo sapiens, UniProt P29274) (P29274 whole entry): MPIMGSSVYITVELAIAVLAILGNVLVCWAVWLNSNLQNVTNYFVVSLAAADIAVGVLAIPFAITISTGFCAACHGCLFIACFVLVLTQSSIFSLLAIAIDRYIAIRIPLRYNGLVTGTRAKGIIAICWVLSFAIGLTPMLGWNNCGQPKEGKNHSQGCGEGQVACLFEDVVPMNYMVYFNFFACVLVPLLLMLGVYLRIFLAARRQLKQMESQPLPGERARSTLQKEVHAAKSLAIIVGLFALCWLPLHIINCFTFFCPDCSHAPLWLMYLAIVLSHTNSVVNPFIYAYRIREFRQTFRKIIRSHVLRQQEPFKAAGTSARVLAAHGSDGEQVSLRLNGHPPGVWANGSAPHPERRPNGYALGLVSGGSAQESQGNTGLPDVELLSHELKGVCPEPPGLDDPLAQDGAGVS

effect on A3 AR in binding ([4]; at 10 μM) | inhibition at 10 µM ([4]; read-out: inhibition of radioligand binding at A3 AR) [%] | effect on A1 AR in binding ([5]; at 10 μM) | inhibition at 10 µM ([5]; read-out: inhibition of radioligand binding at A1 AR) [%] | Compound | Ki [1] [µM] | functional activity in cyclic AMP assay at the A2AAR [2] | effect on NECA-induced cyclic AMP accumulation [3]
– | – | – | – | OC[C@H]1O[C@@H](n2cnc3c(NC4CCCC4)ncnc32)[C@H](O)[C@@H]1O [CPA] | 0.794 | – | –
did not show any effect | 3.8 ± 2.1 | did not show any effect | 4.6 ± 1.9 | N=c1ccc2c(-c3ccc(C(=O)NCCNC(=O)COc4ccc(CCCn5ncc6c5nc(N)n5nc(-c7ccco7)nc65)cc4)cc3C(=O)O)c3ccc(N)c(S(=O)(=O)O)c3oc-2c1S(=O)(=O)O [MRS5346, 5-((2-(2-(4-(3-(5-amino-2-(furan-2-yl)-7H-pyrazolo[4,3-e][1,2,4]triazolo[1,5-c]pyrimidin-7-yl)propyl)phenoxy)acetamido)-ethyl)-carbamoyl)-2-(6-amino-3-iminio-4,5-disulfonato-3H-xanthen-9-yl)benzoate] | – | antagonist; also recorded: inhibited cyclic AMP accumulation | did not show any effect; also recorded: did not inhibit
